Results: patent publication US11358962B2, “2-hetaryl imidazol[1,2-a]pyridine derivatives” (Hoffmann-La Roche Inc., priority 2013, dated 2022)

What follows are compounds tested on native tau aggregates (assay: TAU radioligand in vitro displacement assay ([3H]T808, autoradiography on human AD brain sections)). Conditions: compound 10 nM, radioligand [3H]T808 10 nM.
Type: binding
From the text: TAU Radioligand-In-Vitro Displacement Assay
This in vitro binding assay assesses the affinity of compounds for native tau aggregates.
AD human brains are purchased from Banner Sun Health Research Institute (Sun City, Ariz., USA). Pathological diagnosis of AD is made according to standard NIA-Reagan Institute criteria based on neuropathological data. The radioligand [^3H]T808 was synthesized in-house ([^3H]-2-[4-(2-Fluoro-ethyl)-piperidin-1-yl]-benzo[4,5]imidazo[1,2-a]pyrimidine, radiochemical purity 99.0%). As a reference cold T808 is used (2-[4-(2-Fluoro-ethyl)-piperidin-1-yl]-benzo[4,5]imidazo[1,2-a]pyrimidine). For the autoradiography FujiFilm Imaging Plates (BAS-IP TR 2025) are exposed to the sections and read with a FujiFilm IP reader (BAS-5000).
Ten μm thick human AD brain sections are generated with a cryostat (Leica CM3050) at −17° C. chamber temperature and −15° C. object temperature. Sections are transferred to Histobond+ microscope slides (Marienfeld Laboratory Glasware). After drying for 3 hours at room temperature the sections are stored at −20° C. The sections are incubated with the radioligand (10 nM) and the respective cold compound (at various concentrations) in 50 mM Tris buffer, pH 7.4 at room temperature for 30 min. After washing 3× 10 min at 4° C. in 50 mM Tris buffer, pH 7.4 and 3 quick dips in H2O dist. at 4° C. the sections are dried at 4° C. for 3 h. The sections are placed in a FujiFilm Cassette (BAS 2025), exposed with an Imaging Plate for five days and afterwards scanned with a resolution of […].
The signal intensity (Dens−PSL/mm2) in the region of interest (ROI) of the autoradiogram is quantified with the software MCID analysis (version 7.0, Imaging Research Inc.). The specific binding (SB) of [^3H]T808 binding in absence or in presence of a compound is calculated by subtracting the non-specific binding signal in the white matter, thus yielding SB[3H]T808 only and SBcompound. The % displacement by the various compounds is calculated as following: % displacement=100−(SBcompound/SB[3H]T808 only)*100. Validation Data
In each experiment cold T808 is used as a positive internal control. Co-incubation of equimolar amounts of hot and cold T808 is expected to reduce specific binding by approximately 50%.

Structure (SMILES)	% displacement of [3H]T808 (10 nM) at 10 nM [%]
CNc1ccn2cc(-c3ccsc3)nc2c1 [Example 100, Methyl-(2-thiophen-3-yl-imidazo[1,2-a]pyridin-7-yl)-amine]	59
CC(=O)O.COc1cccc(-c2cn3ccc(N(C)CCF)cc3n2)c1 [Example 83, N-(2-fluoroethyl)-2-(3-methoxyphenyl)-N-methylimidazo[1,2-a]pyridin-7-amine, acetic acid adduct]	32
COc1cccc(-c2cn3ccc(N4CCCCC4)cc3n2)c1 [Example 8, 2-(3-Methoxy-phenyl)-7-piperidin-1-yl-imidazo[1,2-a]pyridine]	25
FCCC1CCN(c2ccn3cc(-c4ccccc4)nc3c2)CC1 [Example 58, 7-[4-(2-Fluoro-ethyl)-piperidin-1-yl]-2-phenyl-imidazo[1,2-a]pyridine]	12
CNc1ccn2cc(-c3ccc(C)c(C)c3)nc2c1 [Example 53, [2-(3,4-Dimethyl-phenyl)-imidazo[1,2-a]pyridin-7-yl]-methyl-amine]	25
CNc1ccn2cc(-c3cccs3)nc2c1 [Example 102, N-(2-Thiophen-2-yl-imidazo[1,2-a]pyridin-7-yl)-methyl-amine]	50
CNc1ccn2cc(-c3ccco3)nc2c1 [Example 101, N-(2-Furan-2-yl-imidazo[1,2-a]pyridin-7-yl)-methyl-amine]	50
COc1ccc(-c2cn3ccc(N(C)CCF)cc3n2)cc1 [Example 65, (2-Fluoro-ethyl)-[2-(4-methoxy-phenyl)-imidazo[1,2-a]pyridin-7-yl]-methyl-amine]	28
FCCOc1cccc(-c2cn3ccc(N4CCC4)cc3n2)c1 [Example 140, 7-(azetidin-1-yl)-2-(3-(2-fluoroethoxy)phenyl)imidazo[1,2-a]pyridine]	23
Cc1cccc(-c2cn3ccc(NCCF)cc3n2)c1 [Example 47, (2-Fluoro-ethyl)-(2-m-tolyl-imidazo[1,2-a]pyridin-7-yl)-amine]	36
COc1ccc(-c2cn3ccc(N4CCC(CCF)CC4)cc3n2)cc1 [Example 77, 7-[4-(2-Fluoro-ethyl)-piperidin-1-yl]-2-(4-methoxy-phenyl)-imidazo[1,2-a]pyridine]	27
Cc1cccc(-c2cn3ccc(N4CCOCC4)cc3n2)c1 [Example 35, 7-Morpholin-4-yl-2-m-tolyl-imidazo[1,2-a]pyridine]	27
COc1ccc(-c2cn3ccc(NC(C)CO)cc3n2)cc1 (centres unmarked) [Example 134, 2-(2-(4-methoxyphenyl)imidazo[1,2-a]pyridin-7-ylamino)propan-1-ol]	21
CNc1ccn2cc(-c3cc(C)nn3C)nc2c1 [Example 117, N-[2-(2,5-Dimethyl-2H-pyrazol-3-yl)-imidazo[1,2-a]pyridin-7-yl]-methyl-amine]	18
CNc1ccn2cc(-c3ccc(OC)c(F)c3)nc2c1 [Example 95, N-[2-(3-Fluoro-4-methoxy-phenyl)-imidazo[1,2-a]pyridin-7-yl]-methyl-amine]	55
CN(C)c1ccn2cc(-c3ccc4c(c3)OCCO4)nc2c1 [Example 22, [2-(2,3-Dihydro-benzo[1,4]dioxin-6-yl)-imidazo[1,2-a]pyridin-7-yl]-dimethyl-amine]	39

Structure (SMILES)	% displacement of [3H]T808 (10 nM) at 10 nM [%]
COc1ccc(-c2cn3ccc(N4CCC4)cc3n2)cc1 [Example 24, 7-Azetidin-1-yl-2-(4-methoxy-phenyl)-imidazo[1,2-a]pyridine]	54
COc1ccc(-c2cn3ccc(NCCCF)cc3n2)cc1 [Example 132, N-(3-fluoropropyl)-2-(4-methoxyphenyl)imidazo[1,2-a]pyridin-7-amine]	38
CNc1ccn2cc(-c3ccc(OCF)cc3)nc2c1 [Example 45, [2-(4-Fluoromethoxy-phenyl)-imidazo[1,2-a]pyridin-7-yl]-methyl-amine]	45
CNc1ccn2cc(-c3ccc4c(c3)NC(=O)CO4)nc2c1 [Example 119, 6-(7-Methylamino-imidazo[1,2-a]pyridin-2-yl)-4H-benzo[1,4]oxazin-3-one]	46
Cc1ccc(-c2cn3ccc(N(C)CCF)cc3n2)cc1 [Example 29, N-(2-Fluoroethyl)-N-methyl-(2-p-tolyl-imidazo[1,2-a]pyridin-7-yl)-amine]	38
COc1ccc(-c2cn3ccc(N4CCOCC4)cc3n2)cc1 [Example 13, 2-(4-Methoxy-phenyl)-7-morpholin-4-yl-imidazo[1,2-a]pyridine]	40
COc1ccc(-c2cn3ccc(NCCF)cc3n2)cc1OC [Example 73, [2-(3,4-Dimethoxy-phenyl)-imidazo[1,2-a]pyridin-7-yl]-(2-fluoro-ethyl)-amine]	21
FCOc1ccc(-c2cn3ccc(N4CCC4)cc3n2)cc1 [Example 70, 7-Azetidin-1-yl-2-(4-fluoromethoxy-phenyl)-imidazo[1,2-a]pyridine]	32
F[C@@H]1CCN(c2ccn3cc(-c4ccccc4)nc3c2)C1 [Example 42, 7-((R)-3-Fluoro-pyrrolidin-1-yl)-2-phenyl-imidazo[1,2-a]pyridine]	23
F[C@H]1CCN(c2ccn3cc(-c4ccccc4)nc3c2)C1 [Example 31, (S)-7-(3-Fluoropyrrolidin-1-yl)-2-phenyl-imidazo[1,2-a]pyridine]	31
FCOc1cccc(-c2cn3ccc(N4CCC4)cc3n2)c1 [Example 107, 7-(Azetidin-1-yl)-2-[3-(fluoromethoxy)phenyl]imidazo[1,2-a]pyridine]	48
COc1ccc(-c2cn3ccc(NC4CC4)cc3n2)cc1 [Example 67, Cyclopropyl-[2-(4-methoxy-phenyl)-imidazo[1,2-a]pyridin-7-yl]-amine]	34
CN(C)c1ccn2cc(-c3ccc(CO)cc3)nc2c1 [Example 90, [4-[7-(Dimethylamino)imidazo[1,2-a]pyridin-2-yl]phenyl]methanol acetic acid adduct]	32
Cc1cccc(-c2cn3ccc(N(C)C)cc3n2)c1 [Example 26, N,N-Dimethyl-(2-m-tolyl-imidazo[1,2-a]pyridin-7-yl)-amine]	53
Oc1ccc(-c2cn3ccc(NCCF)cc3n2)cc1 [Example 145, 4-(7-(2-fluoroethylamino)imidazo[1,2-a]pyridin-2-yl)phenol]	29
Cc1cccc(-c2cn3ccc(N(C)CCF)cc3n2)c1 [Example 34, (2-Fluoro-ethyl)-methyl-(2-m-tolyl-imidazo[1,2-a]pyridin-7-yl)-amine]	41
